Data taken from patent publication US8916565B2, “Pyrrolopyrazine-spirocyclic piperidine amides as modulators of ion channels” (priority 2011, dated 2014).

These compounds were tested against human NaV subtype, like NaV 1.7 (Homo sapiens, UniProt Q15858) (assay: E-VIPR optical membrane potential assay with electrical stimulation). Conditions: active against one or more sodium channels; Table 3 does not name the assay or NaV subtype; read-out: Binned Activity Data (IC50).
Sequence of human NaV subtype, like NaV 1.7 (Q15858 whole entry): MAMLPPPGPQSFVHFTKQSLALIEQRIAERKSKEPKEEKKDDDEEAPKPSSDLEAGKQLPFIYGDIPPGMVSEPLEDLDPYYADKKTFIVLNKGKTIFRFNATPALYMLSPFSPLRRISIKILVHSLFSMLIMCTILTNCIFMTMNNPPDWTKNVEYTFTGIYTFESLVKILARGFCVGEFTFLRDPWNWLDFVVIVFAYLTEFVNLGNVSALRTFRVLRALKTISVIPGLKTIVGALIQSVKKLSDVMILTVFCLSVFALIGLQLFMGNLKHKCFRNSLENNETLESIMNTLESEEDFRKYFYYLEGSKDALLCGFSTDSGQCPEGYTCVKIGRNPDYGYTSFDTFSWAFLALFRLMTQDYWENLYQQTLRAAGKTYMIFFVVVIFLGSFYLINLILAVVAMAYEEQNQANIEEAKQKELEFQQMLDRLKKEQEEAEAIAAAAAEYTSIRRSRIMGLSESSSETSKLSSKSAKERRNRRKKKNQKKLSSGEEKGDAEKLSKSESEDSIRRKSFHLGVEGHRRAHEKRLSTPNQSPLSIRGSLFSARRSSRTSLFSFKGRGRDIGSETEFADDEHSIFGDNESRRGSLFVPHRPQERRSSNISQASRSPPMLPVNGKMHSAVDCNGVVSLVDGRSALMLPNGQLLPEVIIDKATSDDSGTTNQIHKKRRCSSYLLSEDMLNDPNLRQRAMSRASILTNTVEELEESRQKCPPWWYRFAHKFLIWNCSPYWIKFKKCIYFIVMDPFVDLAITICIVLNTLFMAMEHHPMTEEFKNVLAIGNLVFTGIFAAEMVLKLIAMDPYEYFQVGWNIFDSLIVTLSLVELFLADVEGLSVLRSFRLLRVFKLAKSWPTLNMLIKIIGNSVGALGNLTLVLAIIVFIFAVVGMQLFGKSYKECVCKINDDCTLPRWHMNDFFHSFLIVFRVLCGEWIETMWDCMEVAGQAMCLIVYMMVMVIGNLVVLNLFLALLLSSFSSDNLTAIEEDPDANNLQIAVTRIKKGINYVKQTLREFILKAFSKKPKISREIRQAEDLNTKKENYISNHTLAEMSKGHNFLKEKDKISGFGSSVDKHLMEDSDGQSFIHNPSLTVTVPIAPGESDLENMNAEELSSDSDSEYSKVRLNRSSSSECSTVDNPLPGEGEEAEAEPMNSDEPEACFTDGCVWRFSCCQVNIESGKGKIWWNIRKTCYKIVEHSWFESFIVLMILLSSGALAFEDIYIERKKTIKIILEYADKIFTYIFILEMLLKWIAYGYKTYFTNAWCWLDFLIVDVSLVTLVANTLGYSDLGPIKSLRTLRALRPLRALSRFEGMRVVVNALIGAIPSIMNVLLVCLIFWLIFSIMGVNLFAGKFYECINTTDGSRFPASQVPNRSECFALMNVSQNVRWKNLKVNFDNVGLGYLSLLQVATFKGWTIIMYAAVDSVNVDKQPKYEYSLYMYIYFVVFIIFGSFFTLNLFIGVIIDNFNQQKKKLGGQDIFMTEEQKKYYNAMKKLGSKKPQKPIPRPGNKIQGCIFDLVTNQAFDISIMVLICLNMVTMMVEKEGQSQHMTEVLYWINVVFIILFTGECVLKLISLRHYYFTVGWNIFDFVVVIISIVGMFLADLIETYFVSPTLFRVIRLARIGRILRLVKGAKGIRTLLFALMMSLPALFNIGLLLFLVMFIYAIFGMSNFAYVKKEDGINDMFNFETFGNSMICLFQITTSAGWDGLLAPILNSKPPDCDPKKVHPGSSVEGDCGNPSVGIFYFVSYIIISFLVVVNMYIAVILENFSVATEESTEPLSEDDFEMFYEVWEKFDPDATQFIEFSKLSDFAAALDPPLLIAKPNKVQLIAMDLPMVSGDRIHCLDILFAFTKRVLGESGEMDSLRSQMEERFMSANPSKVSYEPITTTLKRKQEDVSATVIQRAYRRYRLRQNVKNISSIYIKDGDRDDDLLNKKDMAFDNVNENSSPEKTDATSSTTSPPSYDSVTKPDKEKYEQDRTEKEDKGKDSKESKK
Format: cell-based
In the case of `CN1CCn2c(Cl)ccc2C12CCN(C(=O)c1ccc(C(C)(C)O)c(F)c1)CC2` [Compound 387], the IC50 is reported as ≤ 2 µM.
For `Cc1cc(C(=O)N2CCC3(CC2)c2ccc(Cl)n2CCN3C)ccc1S(=O)(=O)C(C)C` [Compound 750], the IC50 was > 5 µM.
With `CC(C)Oc1ccc(C(=O)N2CCC3(CC2)c2ccc(C(F)(F)F)n2CCN3C)cc1F` [Compound 568] the IC50 was ≤ 2 µM.
`CC[C@H](C)Oc1ccc(C(=O)N2CCC3(CC2)c2c(F)cc(C(F)(F)F)n2CCN3C)cc1OC` [Compound 141] was tested, and the IC50 was ≤ 2 µM.
With `CN1CCn2c(C(=O)C3(C)CC3)ccc2C12CCN(C(=O)c1ccc(S(=O)(=O)C(F)(F)F)cc1)CC2` [Compound 644] the IC50 was ≤ 2 µM.
Work on `COc1ccc(C(=O)N2CCC3(CC2)c2ccc(C(=O)C(F)(F)F)n2CCN3C)cc1-c1ccccc1` [Compound 130] yielded an IC50 of 2 to 5 µM.
`Cc1cccc(C(=O)N2CCC3(CC2)c2ccc(C(F)(F)F)n2CCN3C)n1` [Compound 63] was tested, and the IC50 was > 5 µM.
`Cc1cc(C(=O)N2CCC3(CC2)c2ccc(C(F)(F)F)n2CCN3CC#N)ccc1OC(C)C` [Compound 165] was tested, and the IC50 was ≤ 2 µM.
For `CN1CCn2c(C(F)(F)F)ccc2C12CCN(C(=O)c1ccc(OC(C)(C)C)cn1)CC2` [Compound 196], the IC50 was > 5 µM.
In the case of `CC(C)CCOc1ccc(C(=O)N2CCC3(CC2)c2ccc(C(=O)C(F)(F)F)n2CCN3C)cc1` [Compound 143], the IC50 is reported as ≤ 2 µM.
Compound `CC(C)Oc1ccc(C(=O)N2CCC3(CC2)c2ccc(Cl)n2CCN3C)cc1CO` [Compound 678] has an IC50 of 2 to 5 µM.
For `CN1CCn2c(C(=O)C(F)(F)F)ccc2C12CCN(C(=O)c1ccc(C3CC3)cc1)CC2` [Compound 389], the IC50 was ≤ 2 µM.
With `CC(C)Oc1ccc(C(=O)N2CCC3(CC2)c2ccc(C(=O)C4CC4)n2CCN3C)cc1F` [Compound 744] the IC50 was ≤ 2 µM.
With `Cc1cc(C(=O)N2CCC3(CC2)c2ccc(C(F)(F)F)n2CCN3C)ccc1S(=O)(=O)C(C)C` [Compound 2] the IC50 was ≤ 2 µM.
With `CC(C)Oc1ccc(C(=O)N2CCC3(CC2)c2ccc(Cl)n2CCN3C)cc1` [Compound 696] the IC50 was > 5 µM.
In the case of `Cc1cc(C(=O)N2CCC3(CC2)NCC(C)n2c(C(=O)C(F)(F)F)ccc23)ccc1C(C)(C)O` (centres unmarked) [Compound 235], the IC50 is reported as ≤ 2 µM.
With `CC(C)CCOc1ccc(C(=O)N2CCC3(CC2)c2ccc(Cl)n2CCN3C)cc1` [Compound 530] the IC50 was ≤ 2 µM.
In the case of `CN1CCn2c(C(=O)C3(C)CC3)ccc2C12CCN(C(=O)c1ccc(C(C)(C)O)cc1)CC2` [Compound 267], the IC50 is reported as 2 to 5 µM.
For `CCNc1cc(C)nc2c(C(=O)N3CCC4(CC3)c3ccc(C(F)(F)F)n3CCN4C)cnn12` [Compound 737], the IC50 was ≤ 2 µM.
With `Cc1cc(C(=O)N2CCC3(CC2)c2ccc(C(F)(F)F)n2CCN3C)ccc1F` [Compound 177] the IC50 was > 5 µM.
With `CN1CCn2c(C(=O)C(F)(F)F)ccc2C12CCN(C(=O)c1cc(O)ccc1F)CC2` [Compound 417] the IC50 was > 5 µM.
With `Cc1cc(C(=O)N2CCC3(CC2)c2ccc(C(=O)C4CC4)n2CCN3C)ccc1OC(C)C` [Compound 70] the IC50 was ≤ 2 µM.
In the case of `CNS(=O)(=O)c1ccc(C(=O)N2CCC3(CC2)NCCn2c(C(F)(F)F)ccc23)cc1C` [Compound 283], the IC50 is reported as 2 to 5 µM.
Work on `COc1cc(C(=O)N2CCC3(NCCn4c(C(F)(F)F)ccc43)C(C)C2)ccc1OC(C)C` (centres unmarked) [Compound 506] yielded an IC50 of 2 to 5 µM.
In the case of `CCCc1ccc(C(=O)N2CCC3(CC2)c2ccc(Cl)n2CCN3C)cc1` [Compound 224], the IC50 is reported as > 5 µM.
`CC(C)Oc1ccc(C(=O)N2CCC3(CC2)c2ccc(Cl)n2CCN3C)cc1Cl` [Compound 250] was tested, and the IC50 was ≤ 2 µM.
In the case of `CN1CCn2c(Cl)ccc2C12CCN(C(=O)c1cccc3cccnc13)CC2` [Compound 679], the IC50 is reported as 2 to 5 µM.
`CN1CCn2c(C(F)(F)F)cc(Cl)c2C12CCN(C(=O)c1ccc(COCCC(F)(F)F)cc1)CC2` [Compound 102] was tested, and the IC50 was ≤ 2 µM.
In the case of `CC(C)Oc1ccc(C(=O)N2CCC3(CC2)N[C@H](C)Cn2c(C(F)(F)F)ccc23)cc1F` [Compound 57], the IC50 is reported as ≤ 2 µM.
With `COc1ccc(C(=O)N2CCC3(CC2)c2ccc(C(=O)C(F)(F)F)n2C(C)CN3C)nc1C` (centres unmarked) [Compound 15] the IC50 was ≤ 2 µM.
For `COc1cc(C(=O)N2CCC3(CC2)c2c(F)cc(C(F)(F)F)n2CCN3C)ccc1C1(O)CCC1` [Compound 410], the IC50 was ≤ 2 µM.
For `COc1ccc(C(=O)N2CCC3(CC2)c2cc(C(=O)C(F)(F)F)cn2C(C)(C)CN3C)c(F)c1` [Compound 565], the IC50 was 2 to 5 µM.
`CCCCOc1ccc(C(=O)N2CCC3(CC2)c2ccc(C(F)(F)F)n2CCN3C)cc1OC` [Compound 203] was tested, and the IC50 was ≤ 2 µM.
`Cc1c(O)cccc1C(=O)N1CCC2(CC1)c1ccc(C(=O)C(F)(F)F)n1CCN2C` [Compound 714] was tested, and the IC50 was > 5 µM.
For `Cc1cc(C(=O)N2CCC3(CC2)c2ccc(C(=O)C(C)(C)C)n2CCN3C)ccc1OCCCO` [Compound 711], the IC50 was ≤ 2 µM.
With `CC1(C)Cn2c(C(=O)C(F)(F)F)ccc2C2(CCN(C(=O)c3ccc(OCC4CC4)c(F)c3)CC2)N1` [Compound 509] the IC50 was ≤ 2 µM.
For `CN1CCn2c(C(=O)C(F)(F)F)ccc2C12CCN(C(=O)c1ccc(OCC(C)(C)C)cc1)CC2` [Compound 494], the IC50 was ≤ 2 µM.
For `Cc1cc(C(=O)N2CCC3(CC2)c2ccc(C(F)(F)C(F)(F)F)n2CCN3C)ccc1OC(C)C` [Compound 211], the IC50 was ≤ 2 µM.
In the case of `COc1ccc(C(=O)N2CCC3(CC2)c2ccc(C(=O)C(F)(F)F)n2C(C)CN3C)cc1Cl` (centres unmarked) [Compound 747], the IC50 is reported as ≤ 2 µM.
With `CN1CCn2c(Cl)ccc2C12CCN(C(=O)c1ccc(OC(F)(F)F)cc1)CC2` [Compound 323] the IC50 was > 5 µM.
With `CCCN(CCC)S(=O)(=O)c1ccc(C(=O)N2CCC3(CC2)c2ccc(C(C)=O)n2CCN3C)cc1` [Compound 94] the IC50 was 2 to 5 µM.
For `COc1ccc(C(=O)N2CCC3(CC2)c2ccc(C(F)(F)F)n2CCN3C)cc1OC` [Compound 321], the IC50 was > 5 µM.
With `Cc1cc(C(=O)N2CCC3(CC2)c2ccc(C(F)(F)F)n2CCN3C)ccc1OCC(C)(C)O` [Compound 263] the IC50 was ≤ 2 µM.
In the case of `CC1(C)Cn2c(C(=O)C(F)(F)F)ccc2C2(CCN(C(=O)c3ccc(-c4ccccc4)c(F)c3)CC2)N1` [Compound 576], the IC50 is reported as ≤ 2 µM.
With `CC(C)Cc1ccc(C(=O)N2CCC3(CC2)c2ccc(C(=O)C(F)(F)F)n2CCN3C)cc1` [Compound 339] the IC50 was ≤ 2 µM.
`CCCOc1ccc(C(=O)N2CCC3(CC2)c2ccc(C(C)=O)n2CCN3C)cc1` [Compound 507] was tested, and the IC50 was > 5 µM.
For `O=C(c1ccc(S(=O)(=O)NC2CC2)cc1)N1CCC2(CC1)c1ccc(C(F)(F)F)n1CCN2C1CCC1` [Compound 145], the IC50 was > 5 µM.
`CCNS(=O)(=O)c1ccc(C(=O)N2CCC3(CC2)c2ccc(C(C)=O)n2CCN3C)cc1` [Compound 192] was tested, and the IC50 was > 5 µM.
With `Cc1cc(C(=O)N2CCC3(CC2)c2cc(C(=O)C(F)(F)F)cn2C(C)(C)CN3C)ccc1C(C)(C)O` [Compound 421] the IC50 was > 5 µM.
`CN1CCn2c(C(=O)C3CC3)ccc2C12CCN(C(=O)c1ccc(C(C)(C)O)c(F)c1)CC2` [Compound 368] was tested, and the IC50 was ≤ 2 µM.
For `Cc1nc(C(=O)N2CCC3(CC2)c2cc(C(=O)C(F)(F)F)cn2C(C)(C)CN3C)ccc1OC(C)C` [Compound 178], the IC50 was > 5 µM.
In the case of `Cc1cc(C(=O)N2CCC3(CC2)c2ccc(C(=O)C(F)(F)F)n2CCN3C)ccc1OCC(C)(C)O` [Compound 570], the IC50 is reported as ≤ 2 µM.
For `COCCN1CCn2c(C(F)(F)F)ccc2C12CCN(C(=O)c1ccc(OC(C)C)c(OC)c1)CC2` [Compound 186], the IC50 was ≤ 2 µM.
In the case of `C[C@H]1Cn2c(C(=O)C(F)(F)F)ccc2C2(CCN(C(=O)c3ccc(OCC(F)(F)F)cc3)CC2)N1C` [Compound 463], the IC50 is reported as ≤ 2 µM.
Compound `COc1cc(C(=O)N2CCC3(CC2)c2ccc(C(F)(F)F)n2CCN3C)ccc1O` [Compound 407] has an IC50 of 2 to 5 µM.
With `COc1cc(C(=O)N2CCC3(CC2)c2ccc(C(=O)C(F)(F)F)n2CCN3C)ccc1COCC(F)(F)F` [Compound 17] the IC50 was ≤ 2 µM.
For `COc1cc(C(=O)N2CCC3(CC2)c2ccc(C(F)(F)F)n2CCN3C)ccc1C(C)(C)O` [Compound 213], the IC50 was ≤ 2 µM.
For `CC(C)Nc1ccnc2c(C(=O)N3CCC4(CC3)c3ccc(C(F)(F)F)n3CCN4C)cnn12` [Compound 162], the IC50 was ≤ 2 µM.
In the case of `COc1cc(C(=O)N2CCC3(CC2)c2ccc(C(F)(F)F)n2CCN3CC(F)F)ccc1OC(C)C` [Compound 706], the IC50 is reported as ≤ 2 µM.
`CC(C)S(=O)(=O)c1ccc(C(=O)N2CCC3(CC2)c2ccc(C(=O)C(C)(C)C)n2CCN3C)cc1` [Compound 176] was tested, and the IC50 was 2 to 5 µM.
In the case of `CC(C)Oc1ccc(C(=O)N2CCC3(CC2)c2ccc(C(=O)C(F)(F)F)n2C(C)(C)CN3C)cc1F` [Compound 16], the IC50 is reported as 2 to 5 µM.
With `COc1ccc(C(=O)N2CCC3(CC2)NC(C)(C)Cn2c(C(=O)C(F)(F)F)ccc23)cc1C` [Compound 612] the IC50 was ≤ 2 µM.
In the case of `COc1ccc(C(=O)N2CCC3(CC2)c2ccc(C(=O)C(F)(F)F)n2C(C)(C)CN3C)cc1C(F)(F)F` [Compound 596], the IC50 is reported as > 5 µM.
For `CC(=O)c1ccc2n1CCN(C)C21CCN(C(=O)c2ccc(COCC(F)(F)F)cc2)CC1` [Compound 447], the IC50 was > 5 µM.
With `COc1cc(C(=O)N2CCC3(CC2)c2c(Cl)cc(C(F)(F)F)n2CCN3C)ccc1COCCC(F)(F)F` [Compound 554] the IC50 was ≤ 2 µM.
With `Cc1cc(C(=O)N2CCC3(CC2)c2c(F)cc(C(F)(F)F)n2CCN3C)ccc1C1(O)CCC1` [Compound 384] the IC50 was ≤ 2 µM.
`CC(=O)Nc1ccc(-c2ccc(C(=O)N3CCC4(CC3)c3ccc(C(=O)C(F)(F)F)n3CCN4C)cc2C)cn1` [Compound 653] showed an IC50 of 2 to 5 µM.
With `CN1CCn2c(C(F)(F)F)cc(Cl)c2C12CCN(C(=O)c1ccc(CC(C)(C)O)c(F)c1)CC2` [Compound 401] the IC50 was ≤ 2 µM.
`CN1CCn2c(C(=O)C(F)(F)F)ccc2C12CCN(C(=O)c1ccc(OS(=O)(=O)C(F)(F)F)cc1)CC2` [Compound 517] was tested, and the IC50 was ≤ 2 µM.
With `COc1cc(C(=O)N2CCC3(CC2)NCCn2c(C(F)(F)F)ccc23)ccc1O` [Compound 594] the IC50 was > 5 µM.
For `CC(=O)c1ccc2n1CCN(C)C21CCN(C(=O)c2ccc(OC(C)C)c(C)n2)CC1` [Compound 691], the IC50 was ≤ 2 µM.
For `Cc1cc(C(=O)N2CCC3(CC2)c2cccn2CCN3Cc2ccccc2)ccc1OC(C)C` [Compound 39], the IC50 was ≤ 2 µM.
In the case of `C[C@H]1Cn2c(C(=O)C(F)(F)F)ccc2C2(CCN(C(=O)c3ccc(S(=O)(=O)C4CC4)cc3)CC2)N1C` [Compound 702], the IC50 is reported as ≤ 2 µM.
For `COc1cc(C(=O)N2CCC3(CC2)NC(C)(C)Cn2c(C(=O)C(F)(F)F)ccc23)ccc1-c1ccccc1` [Compound 589], the IC50 was ≤ 2 µM.
